Assay results published in US7790765B2, “Hydroxy sulfonate of quinone compounds and their uses” (ArQule, Inc., priority 2007, dated 2010).

Legend:
[1] = equilibrium solubility of β-lapachone with bisulfites, HPLC; format: physicochemical; settings: 3-15 mg/mL sodium metabisulfite or sodium bisulfite in water or 2.5-5% HPβCD; shaken 24 hours
Experimental: Solutions of bisulfites at different concentrations were prepared in water or 2.5% HPβCD and an excess amount of β-lapachone was added to obtain a saturated solution. These solutions were shaken for 24 hours, filtered through a 0.45 μm filter, and analyzed for β-lapachone concentration by HPLC. The equilibrium solubility results, in the presence and absence of HPβCD, are illustrated in FIGS. 1A to 1C. Bisulfite can enhance the equilibrium solubility of β-lapachone depending on the concentration of the bisulfites. […] The solubility of the β-lapachone is directly proportional with the amounts of bisulfites added, until they reach respective saturation concentrations (See FIG. 1C).

[2] = maximum concentrations of β-lapachone converted to Compound 1 at different pHs; format: physicochemical
[3] = Source text: Methyl beta-cyclodextrin (MeβCD) is a derivative of beta-cyclodextrin with 1-7 methyl substituents on the secondary O-2 positions.
HPβCD with two different degrees of substitutions, 6.9 and 4.3, were compared in terms of β-lapachone solubility.

[4] = test system: human cancer cell lines; settings: single agent, typical range, read-out: antineoplastic activity (IC50); cited from earlier work
[5] = test system: normal or proliferating human PBMC; settings: cited from earlier work
[6] = reversion of Compound 1 to β-lapachone in dilute or buffered solution (UV-vis, HPLC); format: physicochemical
Source text: Thus, compound 1 also reverts back to β-lapachone under the conditions of high pH or when mixed with plasma. The hydroxy sulfonate of β-lapachone easily reverts back to β-lapachone in dilute solutions of bisulfite and other reagents. […] However, the mass by LC/MS for Compound 1 can be obtained using a short LC method where the acetonitrile/water mobile phase is acidified with 0.1% formic acid. Even under these conditions, two peaks are observed, one peak corresponding to Compound 1, and one to the β-lapachone released from the complex.

[7] = reversion of Compound 1 to β-lapachone in human plasma (UV-vis); format: in vitro ADME; settings: diluted human plasma
Source text: Thus, compound 1 also reverts back to β-lapachone under the conditions of high pH or when mixed with plasma.

| stability: reversion to β-lapachone ([6]; diluted with mobile phase of acetonitrile and phosphate buffer pH 6.8, HPLC) | stability: reversion to β-lapachone ([6]; dilution to 20-100 μM or less, or pH increased to 6-7 or higher in combination with dilution, UV-vis) | stability in human plasma: reversion to β-lapachone ([7]; pH 7, listed as compound 1) | SMILES | equilibrium solubility in aqueous solution [1] | Converted β-lapachone Conc. ([2]; Na2S2O5 5 mg/mL, pH of the formulation 3.01) | Converted β-lapachone Conc. ([2]; Na2S2O5 5 mg/mL, pH of the formulation 4.46) | Converted β-lapachone Conc. ([2]; Na2S2O5 5 mg/mL, pH of the formulation 7.04) | Converted β-lapachone Conc. ([2]; NaHSO3 5 mg/mL, pH of the formulation 3.29) | Converted β-lapachone Conc. ([2]; NaHSO3 5 mg/mL, pH of the formulation 4.52) | Converted β-lapachone Conc. ([2]; NaHSO3 5 mg/mL, pH of the formulation 7.04) | higher solubilizing effect of HPβCD of lower degree of substitution on β-lapachone solubility [3] | IC50 [4] | cytotoxic effects [5] | stability: reversion to β-lapachone ([6]; diluted in phosphate buffered saline at pH 7, UV-vis) | stability in human plasma: reversion to β-lapachone ([7]; pH 7) |
| --- | --- | --- | --- | --- | --- | --- | --- | --- | --- | --- | --- | --- | --- | --- | --- |
|  |  |  | CC1(C)CCC2=C(O1)c1ccccc1C(=O)C2=O [β-lapachone, 3,4-dihydro-2,2-dimethyl-2H-naphtho[1,2-b]pyran-5,6-dione] | dramatically improve the solubility | 5.90 mg/mL | 5.76 mg/mL | 1.88 mg/mL | 5.76 mg/mL | 5.97 mg/mL | 2.23 mg/mL | 16-17% | 1 to 10 µM | No cytotoxic effects were observed |  |  |
| only the β-lapachone can be detected | converts Compound 1 back to β-lapachone | the only species present is β-lapachone | CC1(C)CCC2=C(O1)c1ccccc1C(O)(S(=O)(=O)[O-])C2=O.[Na+] (stereo not drawn) [Compound 1, Sodium 6-hydroxy-2,2-dimethyl-5-oxo-3,4,5,6-tetrahydro-2H-benzo(h)chromene-6-sulfonate] |  |  |  |  |  |  |  |  |  |  | UV-vis spectrum become identical to that for a solution of β-lapachone | UV-vis spectrum become identical to that for a solution of β-lapachone |
